Experimental data published in PubChem BioAssay AID212 (DTP/NCI, 2004).
Where “and” joins values, the source holds several entries; their conditions need not be identical. Equal entries are not always repeated. Inconclusive results are not listed.

Tested on: BDF1 mice, colon carcinoma 38 sc, T/C %
Assay: NCI In Vivo Anticancer Drug Screen. Data for tumor model Colon Carcinoma 38 (subcutaneous) in B6D2F1 (BDF1) mice
How it was run: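 Ratio of survival or tumor size, compound-treated animals relative to vehicle controls, in tumor-bearing mice.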

[1] = endpoint: median tumor weight (est.), dose: 12.5 mg/kg/injection, schedule: Q07DX002 (ip), vehicle: Klucel (hydroxypropylcellulose) (HPC), higher = larger tumour
[2] = endpoint: median tumor weight (est.), dose: 25.0 mg/kg/injection, schedule: Q07DX002 (ip), vehicle: Klucel (hydroxypropylcellulose) (HPC), higher = larger tumour
[3] = endpoint: median tumor weight (est.), dose: 50.0 mg/kg/injection, schedule: Q07DX002 (ip), vehicle: Klucel (hydroxypropylcellulose) (HPC), higher = larger tumour
[4] = endpoint: median tumor weight (est.), dose: 100.0 mg/kg/injection, schedule: Q07DX002 (ip), vehicle: Klucel (hydroxypropylcellulose) (HPC), higher = larger tumour
[5] = endpoint: median tumor weight (est.), dose: 200.0 mg/kg/injection, schedule: Q07DX002 (ip), vehicle: Klucel (hydroxypropylcellulose) (HPC), higher = larger tumour
[6] = endpoint: median tumor weight (est.), dose: 4.0 mg/kg/injection, schedule: Q07DX002 (ip), vehicle: saline, higher = larger tumour

NC(=O)c1[nH]nc(C2OC(CO)C(O)C2O)c1O (centres undefined)
T/C (endpoint: median survival time, dose: 0.75 mg/kg/injection, schedule: Q04DX004 (ip), vehicle: saline, higher = longer survival): 77 % of control and 79 % of control
T/C (endpoint: median survival time, dose: 1.5 mg/kg/injection, schedule: Q04DX004 (ip), vehicle: saline, higher = longer survival): 90 % of control and 105 % of control
T/C (endpoint: median survival time, dose: 3.0 mg/kg/injection, schedule: Q04DX004 (ip), vehicle: saline, higher = longer survival): 63 % of control and 65 % of control
T/C (endpoint: median survival time, dose: 6.0 mg/kg/injection, schedule: Q04DX004 (ip), vehicle: saline, higher = longer survival): 59 % of control
T/C (endpoint: median survival time, dose: 12.0 mg/kg/injection, schedule: Q04DX004 (ip), vehicle: saline, higher = longer survival): 43 % of control
T/C (endpoint: median tumor weight (est.), dose: 0.31 mg/kg/injection, schedule: Q07DX003 (ip), vehicle: saline, higher = larger tumour): 117 % of control
T/C (endpoint: median tumor weight (est.), dose: 0.62 mg/kg/injection, schedule: Q07DX003 (ip), vehicle: saline, higher = larger tumour): 90 % of control
T/C (endpoint: median tumor weight (est.), dose: 1.25 mg/kg/injection, schedule: Q07DX003 (ip), vehicle: saline, higher = larger tumour): 97 % of control
T/C (endpoint: median tumor weight (est.), dose: 4.32 mg/kg/injection, schedule: Q04DX004 (ip), vehicle: saline, higher = larger tumour): 81 % of control
T/C (endpoint: median tumor weight (est.), dose: 5.0 mg/kg/injection, schedule: Q07DX002 (ip), vehicle: saline, higher = larger tumour): 100 % of control
T/C (endpoint: median tumor weight (est.), dose: 5.0 mg/kg/injection, schedule: Q07DX003 (ip), vehicle: saline, higher = larger tumour): 93 % of control
T/C (endpoint: median tumor weight (est.), dose: 7.2 mg/kg/injection, schedule: Q04DX004 (ip), vehicle: saline, higher = larger tumour): 61 % of control
T/C (endpoint: median tumor weight (est.), dose: 10.0 mg/kg/injection, schedule: Q07DX002 (ip), vehicle: saline, higher = larger tumour): 86 % of control
T/C (endpoint: median tumor weight (est.), dose: 10.0 mg/kg/injection, schedule: Q07DX003 (ip), vehicle: saline, higher = larger tumour): 82 % of control
T/C (endpoint: median tumor weight (est.), dose: 12.0 mg/kg/injection, schedule: Q04DX004 (ip), vehicle: saline, higher = larger tumour): 17 % of control

Cc1cc(N(CCOS(C)(=O)=O)CCOS(C)(=O)=O)ccc1C=Nc1ccc(-c2nc(Cc3ccccc3)sc2C)cc1
T/C [1]: 112 % of control and 91 % of control
T/C [2]: 100 % of control and 102 % of control
T/C [3]: 112 % of control and 98 % of control
T/C [4]: 63 % of control and 76 % of control
T/C [5]: 18 % of control and 30 % of control

COC(C(=O)C(O)C(C)O)C1Cc2cc3cc(OC4CC(OC(C)=O)C(OC5CC(O)C(OC)C(C)O5)C(C)O4)cc(O)c3c(O)c2C(=O)C1OC1CC(OC2CC(OC3CC(C)(O)C(OC(=O)C(C)C)C(C)O3)C(O)C(C)O2)C(O)C(C)O1 (centres undefined)
T/C (endpoint: median tumor weight (est.), dose: 0.12 mg/kg/injection, schedule: Q07DX002 (ip), vehicle: saline with Tween-80, higher = larger tumour): 113 % of control
T/C (endpoint: median tumor weight (est.), dose: 0.25 mg/kg/injection, schedule: Q07DX002 (ip), vehicle: saline, higher = larger tumour): 81 % of control
T/C (endpoint: median tumor weight (est.), dose: 0.5 mg/kg/injection, schedule: Q07DX002 (ip), vehicle: saline with Tween-80, higher = larger tumour): 113 % of control
T/C (endpoint: median tumor weight (est.), dose: 0.5 mg/kg/injection, schedule: Q07DX002 (ip), vehicle: saline, higher = larger tumour): 78 % of control
T/C (endpoint: median tumor weight (est.), dose: 1.0 mg/kg/injection, schedule: Q07DX002 (ip), vehicle: saline with Tween-80, higher = larger tumour): 59 % of control
T/C (endpoint: median tumor weight (est.), dose: 1.0 mg/kg/injection, schedule: Q07DX002 (ip), vehicle: saline, higher = larger tumour): 89 % of control
T/C (endpoint: median tumor weight (est.), dose: 2.0 mg/kg/injection, schedule: Q07DX002 (ip), vehicle: saline with Tween-80, higher = larger tumour): 55 % of control
T/C (endpoint: median tumor weight (est.), dose: 2.0 mg/kg/injection, schedule: Q07DX002 (ip), vehicle: saline, higher = larger tumour): 124 % of control
T/C (endpoint: median tumor weight (est.), dose: 4.0 mg/kg/injection, schedule: Q07DX002 (ip), vehicle: saline with Tween-80, higher = larger tumour): 48 % of control
T/C [6]: 92 % of control

N/C(=N\OC(=O)Nc1ccc(CSc2ccc(Cl)cc2)o1)c1ccccn1
T/C [2]: 89 % of control
T/C [3]: 75 % of control
T/C [4]: 90 % of control

Clc1ccc(C2SC=Cc3ccccc32)cc1 (centres undefined)
T/C [3]: 56 % of control
T/C [4]: 47 % of control
T/C [5]: 57 % of control
T/C (endpoint: median tumor weight (est.), dose: 400.0 mg/kg/injection, schedule: Q07DX002 (ip), vehicle: Klucel (hydroxypropylcellulose) (HPC), higher = larger tumour): 93 % of control

COC1C(/C=C/C(C)=O)OC2OC(C)(C)OC21 (centres undefined)
T/C (endpoint: median tumor weight (est.), dose: 100.0 mg/kg/injection, schedule: Q07DX002 (ip), vehicle: saline, higher = larger tumour): 114 % of control and 98 % of control

CC(C)(C)C1CCCCC1
T/C [1]: 100 % of control
T/C [2]: 124 % of control
T/C [4]: 104 % of control
T/C [5]: 77 % of control

CC[C@]1(O)C[C@H]2CN(CCc3c([nH]c4ccccc34)[C@@](C(=O)OC)(c3cc4c(cc3OC)N(C)[C@H]3[C@@](O)(C(=O)OC)[C@H](OC(C)=O)[C@]5(CC)C=CCN6CC[C@]43[C@@H]65)C2)C1
T/C [6]: 20 % of control and 22 % of control

O=C1N(Cl)C(=O)C(c2ccc(Cl)cc2)(c2ccc(Cl)cc2)N1Cl
T/C (endpoint: median tumor weight (est.), dose: 25.0 mg/kg/injection, schedule: Q07DX002 (ip), vehicle: saline with Tween-80, higher = larger tumour): 87 % of control and 90 % of control and 100 % of control
